The values below come from patent US20230147455A1, “COMPOUNDS FOR THE PROPHYLAXIS AND/OR TREATMENT OF ACUTE RESPIRATORY DISTRESS SYNDROME” (SERVICIO ANDALUZ DE SALUD, priority 2020, published 2023).

Read-outs that look alike come from different tables or passages of the source.

The conditions of assay [1]: phase III study conducted in 2000; cited from earlier work.
The test system of assay [2] is SARS-CoV-2. As to the kind of experiment: Pilot randomized clinical trial: ICU admission of hospitalized patients with or without calcifediol. The assay is classed as in vivo. As to conditions: calcifediol YES group, 42 patients. The method, then: Preliminary study performed from 10 Mar. 2020 on 72 patients admitted in pneumology department at Hospital Universitario Reina Sofia in Cordoba, according to hospital protocol.
Administration of vitamin D (calcifediol):
The difference is statistically significant: Chi-squared with Yates' correction p=0.0001.
As shown in the results, progression of the disease requiring admission to the ICU occurred in only 1 of all the patients who were treated with calcifediol.

The subject of assay [3] is COVID-19. As to the kind of experiment: Retrospective multicenter cohort study of patients hospitalized with COVID-19, intrahospital mortality. The assay is classed as in vivo, human.
For assay [4] the following is noted: in vivo; cited from earlier work.
The conditions of assay [5]: patients with ALI and ARDS; cited from earlier work.
The conditions of assay [6]: cited from earlier work.
The conditions of assay [7]: 14 clinical trials with 1303 patients; cited from earlier work.
Assay [8] relates to renin and Ang II. To be noted: rat lung tissues treated with lipopolysaccharide; cited from earlier work.

On to `CC(=O)N1CCN(c2ccc(OCC3COC(Cn4ccnc4)(c4ccc(Cl)cc4Cl)O3)cc2)CC1` (centres unmarked) [Ketoconazole], for which the “mortality and secondary outcome measures” value in assay [1] is recorded as “did not show any improvement in mortality or in secondary outcome measures”.

Regarding `C=C1CC[C@H](O)C/C1=C/C=C1\CCC[C@]2(C)[C@@H]([C@H](C)CCCC(C)(C)O)CC[C@@H]12` [calcifediol, 25-hydroxycholecalciferol], the “ICU NO (number of patients not admitted to the ICU)” value in assay [2] was 41. For the same molecule, the “ICU YES (number of patients admitted to the ICU)” value in assay [2] (vs 13 of 30 without calcifediol, Chi-squared with Yates' correction p=0.0001) is 1. The mortality rate in assay [3] (79 hospitalized COVID-19 patients who received calcifediol, vs 20.7% without, p <0.001) worked out at 5.1%. Further, the HR for mortality in assay [3] (fitted Cox proportional hazards models, calcifediol vs no calcifediol) is reported as 0.17 (95% CI: 0.05 to 0.51). Besides, the “death OR” value in assay [3] (patients who received calcifediol compared with patients who did not) is on record as 0.20 (95% CI, 0.07 to 0.57). For the same molecule, in assay [3] (patients with COVID-19, general statement at head of Example 2), the “reduction of ICU admissions and death by process” value is “at least 25%”.

In the case of `C[C@H](/C=C/[C@H](C)C(C)(C)O)[C@H]1CC[C@H]2/C(=C/C=C3C[C@@H](O)C[C@H](O)C3)CCC[C@]12C` [Paricalcitol, 19-nor-1,25-(OH)2-vitamin D2], the “effect on LPS-induced acute lung injury” value in assay [4] was “improved the LPS-induced acute lung injury or SARS by maintaining the alveolar barrier function”.

On to `CC(=O)N[C@@H](CS)C(=O)O` [N-acetylcysteine], for which the mortality benefit result in assay [5] is on record as “have not shown any mortality benefits”.

As for vitamin D, the “mortality at 28 days” value is 25.6% in assay [6] (by intramuscular or intravenous injection, vs placebo 40.8%); 20.4% in assay [6] (grouped analysis of the 9 RCTs, vs placebo 21.7%); 20.9% in assay [6] (high daily dose, vs placebo 19.8%); 15.6% in assay [6] (low daily dose, vs placebo 21.3%); 19.9% in assay [6] (only enterally, vs placebo 18.2%). The “OR, mortality at 28 days” value is recorded as 0.73 in assay [6] (grouped analysis of the 9 RCTs, 95% CI 0.46-1.15); 0.83 in assay [6] (high daily dose, CI 95% 0.51-1.36); 0.74 in assay [6] (low daily dose, 95% CI 0.32-1.68); 1.19 in assay [6] (only enterally, 95% CI 0.88-1.57). Besides, the “duration of the stay in the ICU, standard mean difference [SMD]” value in assay [6] (vitamin D vs placebo, 95% CI −0.61 to 0.01) is given as −0.30. The “duration of hospital stay, SMD” value in assay [6] (vitamin D vs placebo) was −0.17. Besides, the “duration of mechanical ventilation, SMD” value in assay [6] (vitamin D vs placebo) was −0.41.

With nitric oxide [inhaled NO], the “oxygenation, survival, days off a ventilator” value in assay [7] is recorded as “only a temporary improvement in oxygenation without the benefit of survival or an increase in days off a ventilator”.

In the case of `C=C1/C(=C\C=C2/CCC[C@]3(C)[C@@H]([C@H](C)CCCC(C)(C)O)CC[C@@H]23)C[C@@H](O)C[C@@H]1O` [Calcitriol, 1-alpha,25-dihydroxycholecalciferol], the “expression of renin and Ang II” value in assay [8] was “suppresses the expression of renin and Ang II”.

The term mortality denotes the share of the test organisms that died.
